Experimental data from ChEMBL document CHEMBL1127138, “2-substituted penems, new candidates for cephalosporinase inhibitors” (Bioorg Med Chem Lett, 1993).

Experiments:
[1] = target: Beta-lactamase (Enterobacter cloacae) (UniProt P05364); assay: Tested for the inhibitory activity against beta-lactamase, Enterobacter cloacae at dose of 0.66 ug/mL using substrate cephaloridine (CER); (E. Cloacae enzyme activity is 1.1517 U/ml)
[2] = target: Beta-lactamase (Pseudomonas aeruginosa (strain ATCC 15692 / PAO1 / 1C / PRS 101 / LMG12228)) (UniProt P24735); assay: Tested for the inhibitory activity against beta-lactamase, Pseudomonas aeruginosa at dose of 0.66 ug/mL using substrate cephaloridine (CER); (P. Aeruginosa enzyme activity is 1.0352 U/ml)
Chain of Beta-lactamase (Pseudomonas aeruginosa (strain ATCC 15692 / PAO1 / 1C / PRS 101 / LMG12228)) (P24735 27-397 limits assumed): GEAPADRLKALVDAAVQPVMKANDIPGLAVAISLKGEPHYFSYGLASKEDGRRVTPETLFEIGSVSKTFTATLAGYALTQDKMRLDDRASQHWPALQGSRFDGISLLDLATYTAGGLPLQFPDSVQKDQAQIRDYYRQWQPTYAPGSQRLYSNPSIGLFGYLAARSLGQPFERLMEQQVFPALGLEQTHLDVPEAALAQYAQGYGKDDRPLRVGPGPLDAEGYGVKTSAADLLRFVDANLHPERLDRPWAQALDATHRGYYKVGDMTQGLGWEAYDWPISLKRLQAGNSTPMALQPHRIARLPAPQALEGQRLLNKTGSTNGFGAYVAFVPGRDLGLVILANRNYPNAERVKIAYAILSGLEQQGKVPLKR

[3] = Tested for the inhibitory activity against beta-lactamase type CTX-1 at dose of 0.66 ug/mL using substrate cephaloridine (CER); (CTX-1 enzyme activity is 0.7363 U/ml)
[4] = target: Beta-lactamase (Enterobacter cloacae) (UniProt P05364); assay: Tested for the inhibitory activity against beta-lactamase, Enterobacter cloacae at dose of 0.66 ug/mL using substrate cephaloridine (CER)
[5] = target: TEM-1 beta-lactamase (Escherichia coli) (UniProt P62593); assay: Tested for the inhibitory activity against beta-lactamase type TEM-1 at dose of 0.66 ug/mL using substrate ampicillin (ABPC); (TEM-1 enzyme activity is 1.6328 U/mL)
Chain of TEM-1 beta-lactamase (Escherichia coli) (P62593 whole entry, looked up): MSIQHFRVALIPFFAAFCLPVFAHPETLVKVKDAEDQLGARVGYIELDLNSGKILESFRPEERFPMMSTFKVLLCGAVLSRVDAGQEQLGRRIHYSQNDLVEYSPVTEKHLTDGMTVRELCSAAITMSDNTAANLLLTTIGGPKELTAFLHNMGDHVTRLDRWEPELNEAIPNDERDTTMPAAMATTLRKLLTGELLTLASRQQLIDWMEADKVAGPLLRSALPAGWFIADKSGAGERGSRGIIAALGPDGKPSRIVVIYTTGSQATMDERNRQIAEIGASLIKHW

[6] = Tested for the inhibitory activity against beta-lactamase type CTX-1 at dose of 10 ug/mL using substrate cephaloridine (CER); (CTX-1 enzyme activity is 0.7363 U/ml)
[7] = target: Beta-lactamase (Enterobacter cloacae) (UniProt P05364); assay: Tested for the inhibitory activity against beta-lactamase, Enterobacter cloacae at dose of 0.1 ug/mL using substrate cephaloridine (CER)
[8] = target: TEM-1 beta-lactamase (Escherichia coli) (UniProt P62593); assay: Tested for the inhibitory activity against beta-lactamase type TEM-1 at dose of 10 ug/mL using substrate ampicillin (ABPC)
[9] = target: Beta-lactamase (Pseudomonas aeruginosa (strain ATCC 15692 / PAO1 / 1C / PRS 101 / LMG12228)) (UniProt P24735); assay: Tested for the inhibitory activity against beta-lactamase, Pseudomonas aeruginosa at dose of 10 ug/mL using substrate cephaloridine (CER); (P. Aeruginosa enzyme activity is 1.0352 U/ml)
[10] = target: TEM-1 beta-lactamase (Escherichia coli) (UniProt P62593); assay: Tested for the inhibitory activity against beta-lactamase type TEM-1 at dose of 0.1 ug/mL using substrate ampicillin (ABPC); (TEM-1 enzyme activity is 1.6328 U/mL)
[11] = target: Beta-lactamase (Enterobacter cloacae) (UniProt P05364); assay: Tested for the inhibitory activity against beta-lactamase, Enterobacter cloacae at dose of 10 ug/mL using substrate cephaloridine (CER); (E. Cloacae enzyme activity is 1.1517 U/ml)

Chain of Beta-lactamase (Enterobacter cloacae) (P05364 21-381 limits assumed): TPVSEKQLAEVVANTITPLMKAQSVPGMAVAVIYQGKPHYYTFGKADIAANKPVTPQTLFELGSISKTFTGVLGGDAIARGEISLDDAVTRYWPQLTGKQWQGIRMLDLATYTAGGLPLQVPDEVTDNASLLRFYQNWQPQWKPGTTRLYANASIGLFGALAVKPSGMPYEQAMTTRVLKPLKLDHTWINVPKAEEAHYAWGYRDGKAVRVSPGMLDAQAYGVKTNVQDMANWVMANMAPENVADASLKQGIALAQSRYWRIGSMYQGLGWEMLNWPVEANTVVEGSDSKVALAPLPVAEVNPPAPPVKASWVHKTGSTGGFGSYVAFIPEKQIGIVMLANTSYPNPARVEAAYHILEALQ

inhibition [1]	inhibition [2]	inhibition [3]	inhibition [4]	inhibition [5]	inhibition [6]	inhibition [7]	inhibition [8]	inhibition [9]	inhibition [10]	inhibition [11]	SMILES
14%	0%	12%	8%	6%	–	–	–	–	–	–	Cc1nnc(SC2=C(C(=O)OC(c3ccccc3)c3ccccc3)N3C(=O)C[C@H]3S2)s1
–	–	–	–	–	19%	10%	28%	16%	2%	45%	Cn1nnnc1SC1=C(C(=O)OC(c2ccccc2)c2ccccc2)N2C(=O)C[C@H]2S1
